Data taken from US10364256B2 (GlaxoSmithKline Intellectual Property Development Limited, priority 2015, dated 2019).

Experiments:
[1] = target: T1, full length Keap1 protein / full length NRF2 protein (Homo sapiens, UniProt Q14145); assay: NRF2-Keap1 TR-FRET Low Protein Assay; format: binding; settings: 1.25 nM Keap1 FlagHis and 2.5 nM biotin-NRF2 added
T1 construct: full length NRF2 protein and full length Keap1 protein (Keap1 exists a dimer) are used; His
Procedure, shortened: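 Flag-tagged full-length Keap1 was preincubated with compound (3-fold series) for 2.25 h at 37 °C in Tris pH 8.0/MgCl2/NaCl/BSA/DTT/CHAPS. Biotin-Avi-NRF2 (added at 2.5 nM) was then bound for 1.25 h at 4 °C. Eu-streptavidin/anti-Flag-APC TR-FRET (665/615 nm) was read after 1 h at RT, and pIC50 came from a four-parameter fit.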

[2] = tested on: NQO1 specific enzyme activity in BEAS-2B cells (marker for NRF2 activation); assay: BEAS-2B NQO1 MTT Assay; format: cell-based; settings: Homo sapiens, compound incubated 48 hours, read-out: EC50 (NQO1 specific enzyme activity induction)
Procedure, shortened: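 NQO1 specific activity induction is derived from the rate of MTT reduction (ΔOD/min, 570 nm, 30 min kinetic read) in crude lysates of BEAS-2B cells exposed to compound for 48 h. A 3-parameter fit gives EC50, reported as pEC50; part of each lysate goes to Cell Titer Glo.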

[3] = target: T2, Keap1 Kelch domain (321-609) / TAMRA-labeled 16mer NRF2 peptide (ETGE motif) (Homo sapiens, UniProt Q14145); assay: NRF2-Keap1 FP Assay (Keap1 Kelch fluorescence polarization); format: binding; settings: 20 nM Keap1 (321-609), 8 nM Tamra labeled peptide
T2 construct: the Kelch domain (321-609) of Keap1 is used
T2 sequence (Q14145 321-609): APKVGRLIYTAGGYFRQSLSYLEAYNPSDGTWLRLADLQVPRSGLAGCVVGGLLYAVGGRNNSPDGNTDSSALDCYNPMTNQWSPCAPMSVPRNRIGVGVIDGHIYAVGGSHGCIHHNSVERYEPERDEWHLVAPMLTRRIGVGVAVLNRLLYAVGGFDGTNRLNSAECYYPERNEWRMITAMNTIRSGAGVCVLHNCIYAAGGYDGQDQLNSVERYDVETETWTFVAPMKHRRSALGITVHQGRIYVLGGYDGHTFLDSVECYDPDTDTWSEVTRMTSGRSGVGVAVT
Procedure, shortened: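 Compound dilutions (3-fold) were incubated 1 hr at room temperature with 20 nM Keap1 Kelch (321-609) and 8 nM TAMRA-labeled ETGE 16mer peptide. Buffer was 50 mM Tris pH 8.0, 100 mM NaCl, 5 mM MgCl2, 1 mM DTT, 2 mM CHAPS, 0.005% BSA. Fluorescence polarization (mP) was normalized to controls and fitted with a four-parameter equation to give pIC50.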

T1 sequence (Q14145 whole entry): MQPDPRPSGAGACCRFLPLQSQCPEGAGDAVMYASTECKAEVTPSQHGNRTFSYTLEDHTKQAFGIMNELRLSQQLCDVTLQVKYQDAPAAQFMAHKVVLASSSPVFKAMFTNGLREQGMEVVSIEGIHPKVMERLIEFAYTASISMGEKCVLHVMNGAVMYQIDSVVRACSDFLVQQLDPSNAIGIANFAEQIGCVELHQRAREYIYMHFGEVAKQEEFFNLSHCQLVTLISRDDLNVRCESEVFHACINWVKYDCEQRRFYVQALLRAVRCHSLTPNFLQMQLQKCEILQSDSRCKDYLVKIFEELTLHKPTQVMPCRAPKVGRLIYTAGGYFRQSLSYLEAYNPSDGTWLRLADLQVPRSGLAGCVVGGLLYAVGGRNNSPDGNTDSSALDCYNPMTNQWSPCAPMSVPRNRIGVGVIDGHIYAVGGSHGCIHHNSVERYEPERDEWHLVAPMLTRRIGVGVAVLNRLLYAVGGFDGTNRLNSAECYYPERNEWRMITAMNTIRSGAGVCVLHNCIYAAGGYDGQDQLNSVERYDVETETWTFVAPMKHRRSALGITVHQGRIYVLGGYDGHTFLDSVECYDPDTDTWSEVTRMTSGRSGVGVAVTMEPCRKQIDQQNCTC

Row | Compound | IC50 [1] | IC50 [3] | EC50 [2]
1 | C[C@H](Oc1cccc(-c2cccc(-n3ncc(C(=O)O)c3[C@@H]3C[C@H]3c3cn(C4CC4)nn3)c2)c1)C1CCCCC1 [Example 98, 1-(3′-((S)-1-Cyclohexylethoxy)-[1,1′-biphenyl]-3-yl)-5-((1R,2R)-2-(1-cyclopropyl-1H-1,2,3-triazol-4-yl)cyclopropyl)-1H-pyrazole-4-carboxylic acid] | < 0.01 µM | 0.01 to 0.1 µM | 0.001 to 0.01 µM
2 | C[C@H](Oc1cccc(-c2cccc(-n3ncc(C(=O)O)c3[C@@H]3C[C@H]3c3c[nH]nn3)c2)c1)C1CCCCC1 [Example 99, 5-((1R,2R)-2-(1H-1,2,3-Triazol-4-yl)cyclopropyl)-1-(3′-((S)-1-cyclohexylethoxy)-[1,1′-biphenyl]-3-yl)-1H-pyrazole-4-carboxylic Acid] | < 0.01 µM | 0.01 to 0.1 µM | 0.001 to 0.01 µM
3 | C[C@H](Oc1cccc(-c2cccc(-n3ncc(C(=O)O)c3[C@H]3C[C@@H]3c3c[nH]nn3)c2)c1)C1CCCCC1 [Example 100, 5-((1S,2S)-2-(1H-1,2,3-Triazol-4-yl)cyclopropyl)-1-(3′-((S)-1-cyclohexylethoxy)-[1,1′-biphenyl]-3-yl)-1H-pyrazole-4-carboxylic Acid] | 0.1 to 1 µM | 1 to 10 µM | 0.1 to 1 µM
4 | C[C@H](Oc1cccc(-c2cccc(-n3ncc(C(=O)O)c3[C@@H]3C[C@H]3c3cn(C)nn3)c2)c1F)C1CCCCC1 [Example 104, 1-(3′-((S)-1-cyclohexylethoxy)-2′-fluoro-[1,1′-biphenyl]-3-yl)-5-((1R,2R)-2-(1-methyl-1H-1,2,3-triazol-4-yl)cyclopropyl)-1H-pyrazole-4-carboxylic Acid] | 0.01 to 0.1 µM | 0.01 to 0.1 µM | 0.01 to 0.1 µM
5 | CC(=O)OCOC(=O)c1cnn(-c2cccc(-c3cccc(O[C@@H](C)C4CCCCC4)c3)c2)c1[C@@H]1C[C@H]1c1cn(C)nn1 [Example 110, Acetoxymethyl 1-(3′-((S)-1-cyclohexylethoxy)-[1,1′-biphenyl]-3-yl)-5-((1R,2R)-2-(1-methyl-1H-1,2,3-triazol-4-yl)cyclopropyl)-1H-pyrazole-4-carboxylate] | 0.01 to 0.1 µM | 0.1 to 1 µM | < 0.001 µM
6 | C[C@H](Oc1cccc(-c2cccc(-n3ncc(C(=O)OCOC(=O)OC(C)(C)C)c3[C@@H]3C[C@H]3c3cn(C)nn3)c2)c1)C1CCCCC1 [Example 112, ((tert-Butoxycarbonyl)oxy)methyl 1-(3′-((S)-1-cyclohexylethoxy)-[1,1′-biphenyl]-3-yl)-5-((1R,2R)-2-(1-methyl-1H-1,2,3-triazol-4-yl)cyclopropyl)-1H-pyrazole-4-carboxylate] | 0.1 to 1 µM | > 10 µM | 0.001 to 0.01 µM
7 | Cc1cc([C@@H]2C[C@H]2c2c(C(=O)O)cnn2-c2cccc(-c3cccc(O[C@@H](C)C4CCCCC4)c3)c2)on1 [Example 115, 1-(3′-((S)-1-cyclohexylethoxy)-[1,1′-biphenyl]-3-yl)-5-((1R,2R)-2-(3-methylisoxazol-5-yl)cyclopropyl)-1H-pyrazole-4-carboxylic Acid] | 0.1 to 1 µM | 0.1 to 1 µM | 0.1 to 1 µM
8 | CC[C@H]1COc2ccccc2CN1Cc1cccc(-c2cccc(-n3ncc(C(=O)O)c3[C@@H]3C[C@H]3c3cn(C)nn3)c2)c1 [Example 119, 1-(3′-(((S)-3-Ethyl-2,3-dihydrobenzo[f][1,4]oxazepin-4(5H)-yl)methyl)-[1,1′-biphenyl]-3-yl)-5-((1R,2R)-2-(1-methyl-1H-1,2,3-triazol-4-yl)cyclopropyl)-1H-pyrazole-4-carboxylic Acid] | < 0.01 µM | 0.01 to 0.1 µM | 0.1 to 1 µM
9 | CC[C@@H]1COc2ccccc2CN1Cc1cccc(-c2cccc(-n3ncc(C(=O)O)c3[C@@H]3C[C@H]3c3cn(C)nn3)c2)c1 [Example 120, 1-(3′-(((R)-3-Ethyl-2,3-dihydrobenzo[f][1,4]oxazepin-4(5H)-yl)methyl)-[1,1′-biphenyl]-3-yl)-5-((1R,2R)-2-(1-methyl-1H-1,2,3-triazol-4-yl)cyclopropyl)-1H-pyrazole-4-carboxylic Acid] | < 0.01 µM | 0.01 to 0.1 µM | 0.01 to 0.1 µM
10 | C[C@@H]1Cc2ccccc2S(=O)(=O)N(Cc2cccc(-c3cccc(-n4ncc(C(=O)O)c4[C@@H]4C[C@H]4c4cn(C)nn4)c3)c2)C1 [Example 130, 1-(3′-(((R)-4-Methyl-1,1-dioxido-4,5-dihydrobenzo[f][1,2]thiazepin-2(3H)-yl)methyl)-[1,1′-biphenyl]-3-yl)-5-((1R,2R)-2-(1-methyl-1H-1,2,3-triazol-4-yl)cyclopropyl)-1H-pyrazole-4-carboxylic Acid] | 0.01 to 0.1 µM | 0.01 to 0.1 µM | 0.1 to 1 µM
11 | C[C@H]1Cc2ccc(Br)cc2S(=O)(=O)N(Cc2cccc(-c3cccc(-n4ncc(C(=O)O)c4[C@@H]4C[C@H]4c4cn(C)nn4)c3)c2F)C1 [Example 131, 1-(3′-(((S)-8-Bromo-4-methyl-1,1-dioxido-4,5-dihydrobenzo[f][1,2]thiazepin-2(3H)-yl)methyl)-2′-fluoro-[1,1′-biphenyl]-3-yl)-5-((1R,2R)-2-(1-methyl-1H-1,2,3-triazol-4-yl)cyclopropyl)-1H-pyrazole-4-carboxylic acid] | < 0.01 µM | 0.01 to 0.1 µM | 0.1 to 1 µM
12 | C[C@H]1Cc2ccccc2S(=O)(=O)N(Cc2cccc(-c3cccc(-n4ncc(C(=O)O)c4[C@@H]4C[C@H]4c4cn(C)nn4)c3)c2)C1 [Example 132, 1-(3′-(((S)-4-methyl-1,1-dioxido-4,5-dihydrobenzo[f][1,2]thiazepin-2(3H)-yl)methyl)-[1,1′-biphenyl]-3-yl)-5-((1R,2R)-2-(1-methyl-1H-1,2,3-triazol-4-yl)cyclopropyl)-1H-pyrazole-4-carboxylic acid] | < 0.01 µM | 0.01 to 0.1 µM | 0.1 to 1 µM
13 | C[C@H]1Cc2ccccc2S(=O)(=O)N(Cc2cccc(-c3cccc(-n4ncc(C(=O)O)c4[C@H]4C[C@@H]4c4cn(C)nn4)c3)c2)C1 [Example 133, 1-(3′-(((S)-4-methyl-1,1-dioxido-4,5-dihydrobenzo[f][1,2]thiazepin-2(3H)-yl)methyl)-[1,1′ biphenyl]-3-yl)-5-((1S,2S)-2-(1-methyl-1H-1,2,3-triazol-4-yl)cyclopropyl)-1H-pyrazole-4-carboxylic acid] | 0.01 to 0.1 µM | 0.1 to 1 µM | 1 to 10 µM

Continued, in another order:

Row | IC50 [1] | IC50 [3] | Compound | EC50 [2]
14 | 1 to 10 µM | > 10 µM | CCOC(=O)c1cnn(-c2cccc(-c3cccc(O[C@@H](C)C4CCCCC4)c3)c2)c1[C@@H]1C[C@H]1c1cn(C)nn1 [Example 105, Ethyl 1-(3′-((S)-1-cyclohexylethoxy)-[1,1′-biphenyl]-3-yl)-5-((1R,2R)-2-(1-methyl-1H-1,2,3-triazol-4-yl)cyclopropyl)-1H-pyrazole-4-carboxylate] | < 0.001 µM
15 | 1 to 10 µM | > 10 µM | C[C@H](Oc1cccc(-c2cccc(-n3ncc(C(=O)OC4CCOC4=O)c3[C@@H]3C[C@H]3c3cn(C)nn3)c2)c1)C1CCCCC1 (stereo partly drawn) [Example 106, 2-Oxotetrahydrofuran-3-yl 1-(3′-((S)-1-cyclohexylethoxy)-[1,1′-biphenyl]-3-yl)-5-((1R,2R)-2-(1-methyl-1H-1,2,3-triazol-4-yl)cyclopropyl)-1H-pyrazole-4-carboxylate] | 0.1 to 1 µM
16 | 1 to 10 µM | > 10 µM | C[C@H](Oc1cccc(-c2cccc(-n3ncc(C(=O)OCCO)c3[C@@H]3C[C@H]3c3cn(C)nn3)c2)c1)C1CCCCC1 [Example 107, 2-Hydroxyethyl 1-(3′-((S)-1-cyclohexylethoxy)-[1,1′-biphenyl]-3-yl)-5-((1R,2R)-2-(1-methyl-1H-1,2,3-triazol-4-yl)cyclopropyl)-1H-pyrazole-4-carboxylate] | 0.1 to 1 µM
17 | 1 to 10 µM | > 10 µM | C[C@H](Oc1cccc(-c2cccc(-n3ncc(C(=O)OCCN4CCOCC4)c3[C@@H]3C[C@H]3c3cn(C)nn3)c2)c1)C1CCCCC1 [Example 108, 2-Morpholinoethyl 1-(3′-((S)-1-cyclohexylethoxy)-[1,1′-biphenyl]-3-yl)-5-((1R,2R)-2-(1-methyl-1H-1,2,3-triazol-4-yl)cyclopropyl)-1H-pyrazole-4-carboxylate] | 0.01 to 0.1 µM
18 | 0.1 to 1 µM | > 10 µM | C[C@H](Oc1cccc(-c2cccc(-n3ncc(C(=O)OCOC(=O)C(C)(C)C)c3[C@@H]3C[C@H]3c3cn(C)nn3)c2)c1)C1CCCCC1 [Example 109, (Pivaloyloxy)methyl 1-(3′-((S)-1-cyclohexylethoxy)-[1,1′-biphenyl]-3-yl)-5-((1R,2R)-2-(1-methyl-1H-1,2,3-triazol-4-yl)cyclopropyl)-1H-pyrazole-4-carboxylate] | 0.001 to 0.01 µM
19 | 0.1 to 1 µM | > 10 µM | C[C@H](Oc1cccc(-c2cccc(-n3ncc(C(=O)OCOC(=O)c4ccccc4)c3[C@@H]3C[C@H]3c3cn(C)nn3)c2)c1)C1CCCCC1 [Example 111, (Benzoyloxy)methyl 1-(3′-((S)-1-cyclohexylethoxy)-[1,1′-biphenyl]-3-yl)-5-((1R,2R)-2-(1-methyl-1H-1,2,3-triazol-4-yl)cyclopropyl)-1H-pyrazole-4-carboxylate] | 0.001 to 0.01 µM
